Test results: the CheMixHub ionic liquid set

Assay: xn = mol fraction of the nth substance listed

CCCCCC[n+]1ccn(C)c1.O=[N+]([O-])[O-] + CC(C)O
viscosity [mPa·s], 100 kPa
Conditions	293.15 K	298.15 K	303.15 K	308.15 K	313.15 K	318.15 K	323.15 K
x1 = 0.0817	6.79	5	3.85	2.97	2.39	2.01	1.65
x1 = 0.1594	16	11.18	7.97	5.99	4.67	3.68	2.88
x1 = 0.2402	32	23	17	12.69	9.5	7.25	5.63
x1 = 0.3493	66	47.7	34	26.9	21	16.7	12.75
x1 = 0.4408	111	79.5	55.4	43.2	34.4	27.2	21.3
x1 = 0.5609	187	136.6	91	70	55.8	43.5	34
x1 = 0.6502	266	193	122.4	94.1	74.7	58.3	44.5
x1 = 0.7417	363	265	164.3	123.7	96	75.4	58
x1 = 0.8518	505	372	232	168.8	128.2	101.2	78.6
x1 = 0.9396	664	467	306	218	160.5	124	96.7
x1 = 1	804	545	369	258	186	140.2	110.9

CC(=O)[O-].Cn1cc[nH+]c1 + CCCC[N+]1(C)CCCC1.O=S(=O)([N-]S(=O)(=O)C(F)(F)F)C(F)(F)F
298.15 K, 100 kPa
Conditions	viscosity [mPa·s]
x1 = 0.19	52.7
x1 = 0.5	26.9
x1 = 1	6.22

CCCCCC[n+]1ccn(C)c1.C[C@H](N)C(=O)[O-] + O
viscosity [mPa·s], 100 kPa
Conditions	288.15 K	293.15 K	298.15 K	303.15 K	308.15 K	313.15 K	318.15 K	323.15 K	328.15 K
x1 = 0.000299	1.156	1.017	0.902	0.809	0.728	0.661	0.603	0.554	0.512
x1 = 0.0003981	1.162	1.022	0.907	0.813	0.732	0.664	0.606	0.557	0.514
x1 = 0.0004989	1.167	1.026	0.911	0.816	0.735	0.666	0.608	0.559	0.516
x1 = 0.0009991	1.203	1.057	0.937	0.838	0.755	0.684	0.626	0.573	0.53
x1 = 0.003	1.361	1.191	1.05	0.933	0.833	0.754	0.684	0.626	0.576
x1 = 0.00499	1.512	1.325	1.162	1.027	0.916	0.825	0.745	0.681	0.625
x1 = 0.006965	1.656	1.445	1.272	1.118	0.997	0.893	0.805	0.736	0.672
x1 = 0.008965	1.819	1.573	1.367	1.202	1.069	0.958	0.866	0.781	0.717
x1 = 0.01103	1.954	1.694	1.475	1.287	1.145	1.026	0.928	0.831	0.763
x1 = 0.01294	2.097	1.814	1.577	1.377	1.223	1.087	0.984	0.887	0.807
x1 = 0.01501	2.242	1.953	1.69	1.466	1.303	1.161	1.035	0.936	0.854
x1 = 0.01801	2.455	–	–	–	–	–	–	–	–

C[NH+](C)C.O=S(=O)([N-]S(=O)(=O)C(F)(F)F)C(F)(F)F + CC1COC(=O)O1
298.15 K, 101 kPa
Conditions	electrical conductivity [S/m]
x1 = 0.0001	0.003
x1 = 0.0137	0.352
x2 = 0.6243	1.61
x2 = 0.7417	1.64
x2 = 0.8037	1.53
x2 = 0.979	0.476

C1CC[NH2+]C1.O=[N+]([O-])[O-] + CC1COC(=O)O1
100 kPa
Conditions	electrical conductivity [S/m]	viscosity [mPa·s]
283.15 K, x2 = 0.38	–	23
298.15 K, x2 = 0.8865	0.99	–
298.15 K, x2 = 0.8938	0.93	–
313.15 K, x2 = 0	–	21
323.15 K, x2 = 0.5	–	6.1
333.15 K, x2 = 0.7	–	3.1
333.15 K, x2 = 0.78	–	2.6
343.15 K, x2 = 0.38	–	5.2
343.15 K, x2 = 0.6	–	3.4
343.15 K, x2 = 0.7	–	2.7
353.15 K, x2 = 0	–	9.3
353.15 K, x2 = 0.6	–	2.9
353.15 K, x2 = 0.7	–	2.3
